Results as given in US20150329878A1, “FERMENTATIVE PRODUCTION OF A HYDROCARBON” (GLOBAL BIOENERGIES, priority 2012, published 2015).
Like-named read-outs stand apart in the source and are kept apart here.

Key:
[1] = system: Escherichia coli, strain MG1655; assay: Effect of high partial pressure of carbon dioxide on growth and metabolism of E. coli cultured on glucose (batch fermenters); assay type: cell-based; details: pCO2~800 mbar
Protocol: Escherichia coli, strain MG1655 (ATCC Number 700926; American Type Culture Collection (ATCC), Manassas, Va.), was grown in batch mode in 1.4 L Multifors fermenters (Infors A G, Basel, Switzerland) equipped with temperature, pH and dO (dissolved oxygen) control. Initially, the fermenters contained in 1 L total volume: KH2PO4, 7.5 g/L; MgSO4.7H2O, 2.0 g/L; citric acid, 1.83 g/L; ferric ammonium citrate, 0.3 g/L; CaCl2.2H2O, 0.2 g/L; sulfuric acid (98%), 1.2 mL/L; yeast extract, 5 g/L; and glucose (10 g/L). After sterilization, 10 mL of a trace metal mixture and 1 mL of a thiamine solution (150 mM) was added and the medium was adjusted to the desired pH (see below) with 3 M NaOH. The trace metal mixture contained: MnSO4.H2O, 3 g/L; NaCl, 1 g/L; FeSO4.7H2O, 0.1 g/L; CoCl2.6H2O, 0.1 g/L; ZnSO4.7H2O, 0.1 g/L; CuSO4.5H2O, 0.0064 g/L; H3BO3, 0.01 g/L; and Na2MoO4.2H2O, 0.01 g/L. In one set of three fermenters, gas flow (air) was fixed at 0.5 VVM (volume per volume per minute) and pH was automatically maintained at pH 6.2, pH 6.5 and 6.8 with the addition of 3 M NaOH. […]
After equilibration with the gases, evident by the cessation of NaOH addition, the fermenters were inoculated at an initial OD600 of approximately 0.4 absorbance units (AU). […]

microbial growth = details: pCO2~300 mbar; Baez A et al. 2009; cited from earlier work
[2] = in the presence of CO2 and N2 mixtures; cited from earlier work
[3] = cited from earlier work

O=C=O [carbon dioxide]
effect on growth rate of E. coli [1]: only slight impairments of growth rate | effect on microbial growth (microbial growth): significantly inhibit microbial growth

C=CC [propylene]
flammable minimum oxygen concentration (MOC) value [2]: about 13%

C=C(C)C [isobutene]
flammable minimum oxygen concentration (MOC) value [2]: about 13% | solubility in water ([3]; at 1 bar and 20° C.): about 260 ppm

C=CC=C [1,3-butadiene]
flammable minimum oxygen concentration (MOC) value [2]: about 10.5% | solubility in water ([3]; at 1 bar and 20° C.): about 735 ppm

C=CC(=C)C [isoprene]
flammable minimum oxygen concentration (MOC) value [2]: about 9.7% | solubility in water ([3]; at 1 bar and 25° C.): about 642 ppm
